Experimental findings from patent publication US11596662B2, “Passion flower seed extract, and cosmetic, pharmaceutical or dermatological compositions containing same” (priority 2015, dated 2023) are described below.

In assay [1] the test system is keratinocytes treated with 9 μg/ml BaP. Kind of assay: ROS production in keratinocytes treated with 9 μg/ml BaP (H2DCF-DA probe). Conditions: 24 hours, then 9 μg/ml BaP 20 minutes. It counts as cell-based, human. How it is done: The keratinocytes were then stimulated with 9 μg/ml benzo-α-pyrene (BaP) for 20 minutes. ROS production was evaluated by measurement of fluorescence.
(§1) The significance of the results was verified by Student's t-test.

The subject of assay [2] is H2O2-treated keratinocytes. Put plainly: ROS production in H2O2-treated keratinocytes (H2DCF-DA probe). It counts as cell-based, human. The note with it: 24 hours, then 100 μM H2O2 20 minutes. The procedure:
The antioxidant potential of an extract of the invention with respect to H2O2 induction of reactive oxygen species was studied.
Normal human keratinocytes were incubated for 24 hours in the presence of a 0.002%, a 0.005% and a 0.01% (w/v) extract of the invention, as obtained in Example 1, or of 500 μM vitamin C and 10 μM quercetin (reference antioxidants) before incorporation of the H2DCF-DA probe (incubation for 60 minutes).
The keratinocytes were then stimulated with 100 μM hydrogen peroxide (H2O2) for 20 minutes and the production of reactive oxygen species (ROS) was evaluated by measurement of fluorescence.
(§2) The results were statistically analysed by one-way ANOVA followed by Tukey's test (GraphPad PRISM version 5.02 software, GraphPad Software, San Diego, Calif., USA).

The subject of a further assay is Nrf2. Put plainly: Nrf2 activity in ARE-luciferase-transfected HaCaT keratinocytes. It counts as cell-based. Conditions: 6 hours. How it is done:
The effect of the extract of the invention was evaluated with respect to activation of translocation of Nrf2, precursor of the cascade responsible for the hormetic response and for certain detoxification pathways of the organism.
ARE-luciferase-transfected HaCaT keratinocytes, containing the antioxidant response element (ARE) plasmid NQO1, which is a specific plasmid for activation of Nrf2 and luciferase (reporter gene), were treated for 6 hours at 37° C. with an extract of the invention, as obtained in Example 1, at concentrations ranging from 0.01% to 0.0005% (w/v) and with a positive reference, 20 μM tert-butylhydroquinone.
At the end of the treatment, the cell monolayers are lysed, luciferase activity is assayed using a “Luciferase Assay Kit” from PROMEGA, and the protein content of each lysate is assayed using the Bradford method (BioRad).

A further assay concerns prostaglandin E2 (PGE2). Kind of assay: PGE2 production in PMA-treated keratinocytes. The note with it: 10^−6 M, 24 hours pretreatment, then PMA 0.1 μg/ml 24 hours. It counts as cell-based, human. How it is done:
The anti-inflammatory protection of an extract of the invention with respect to a chemical molecule, PMA, was studied by analysis of the release of prostaglandin 2 (PGE2).
Normal human keratinocytes were pretreated with a 0.002% and a 0.005% extract of the invention, as obtained in Example 1, and with 10^−6 M indomethacin (anti-inflammatory control of the prostaglandin pathway) for 24 hours at 37° C., in order to be able to measure a level of protection of the active agent with respect to inflammation by 0.1 μg/ml PMA (phorbol 12-myristate 13-acetate) used on these same cell monolayers for a further 24 hours. At the end of the treatment, the supernatants are collected and an assay of prostaglandin E2 (PGE2; R&D Systems) is performed. Staining, proportional to the amount of PGE2, was measured by reading the optical density (OD) at 450 nm.
as §1

The next assay concerns haem oxygenase 1 (HMOX1). Put plainly: HMOX1 production by fibroblasts (ELISA). It counts as cell-based, human. The note with it: 24 hours. The procedure: An extract of the invention was analysed on the protein expression of haem oxygenase.
Normal human fibroblasts were treated for 24 hours with a 0.002% and a 0.005% (w/v) extract of the invention, as obtained in Example 1, and with 5 and 10 μM curcumin (reference hormetin).
At the end of the treatment, intracellular haem oxygenase 1 (or HMOX1 or H01) was quantified using an ELISA technique. Staining, proportional to the quantity of the marker of interest, was measured by reading the optical density (OD) at 450 nm, and the value obtained was related to the quantity of cells obtained by a protein assay using the BC Assay (Interchim).
The results were statistically analysed by one-way ANOVA followed by Dunnett's test (GraphPad PRISM version 5.02 software, GraphPad Software, San Diego, Calif., USA).
For orientation: ELISA stands for enzyme-linked immunosorbent assay.

For another assay, the system named is MMP1. Put plainly: IR-induced production of MMP1 in normal human fibroblasts (ELISA). Conditions: 10^−7 M, 48 hours after IR 0.57 kJ/cm^2. The assay is classed as cell-based. How it is done:
The ability of an extract of the invention to protect dermal cells from the harmful effects of IR rays was studied by evaluating MMP1 production.
Normal human fibroblasts (NHF) were incubated in the presence of a 0.001% extract of the invention, as obtained in Example 1, or of 10^−7 M dexamethasone (reference anti-inflammatory) for 48 hours following 1 hour of infrared irradiation (0.57 kJ/cm^2).
After incubation, the supernatants are collected in order to assay released MMP1 (ELISA Kit, R&D Systems).
as §1

Assay [3] deals with keratinocytes treated by UV at 2400 J/m^2. Put plainly: ROS production in keratinocytes treated by UV at 2400 J/m^2. It counts as cell-based, human. Conditions: 500 μM. How it is done:
The antioxidant potential of an extract of the invention with respect to UV-irradiation-induced reactive oxygen species (ROS) was studied.
Normal human keratinocytes were incubated for 24 hours in the presence of a 0.001% and a 0.005% (w/v) extract of the invention, as obtained in Example 1, or of 500 μM vitamin C (reference antioxidant), before incorporation of the H2DCF-DA probe (incubation for 1 hour).
The keratinocytes were then stimulated with UV at 2400 J/m^2 (2000 J/m^2 UVB and 400 J/m^2 UVA) then returned to culture in the presence of a 0.001% and a 0.005% (w/v) extract of the invention, as obtained in Example 1, or of 500 μM vitamin C, for 15 minutes at 37° C.
The production of reactive oxygen species (ROS) was evaluated by measurement of fluorescence and the value obtained was normalized to the quantity of cells obtained using an MTT cell viability assay.
as §2

Structures are written as SMILES.

Turning to `O=c1c(O)c(-c2ccc(O)c(O)c2)oc2cc(O)cc(O)c12` [quercetin], in assay [1] (10 μM), the “ROS % change (Significance)” value is −32% and the “ROS (fluorescence units)” value was 17140 ± 1930 fluorescence units. In assay [2] (10 μM), the “ROS % change (Significance)” value is given as −67% and the “ROS (fluorescence units)” value is on record as 14367.847 ± 1790.753 fluorescence units.

Regarding `CC(C)(C)c1cc(O)ccc1O` [Tert-butylhydroquinone, tert-butylhydroquinone], the “Nrf2 activity (mean normalized RLU/μg of proteins)” value with Nrf2 (20 μM) was 23216.4 RLU/μg of proteins. Moreover, in the assay on Nrf2 (20 μM (positive reference = 100)), the “Nrf2 Activation (%)” value is 100%.

`Oc1ccc(C=Cc2cc(O)cc(O)c2)cc1` [resveratrol]: in assay [1] (10 μM), the “ROS % change (Significance)” value was −21% and the “ROS (fluorescence units)” value is reported as 20357 ± 503 fluorescence units.

With `COc1ccc2c(c1)c(CC(=O)O)c(C)n2C(=O)c1ccc(Cl)cc1` [Indomethacin, indomethacin], the “PGE2” value with prostaglandin E2 (PGE2) stood at 52 ± 8 pg/mL. For the same molecule, the inhibition (as a rule, how much of the control response was suppressed) at 1 µM with prostaglandin E2 (PGE2) (Homo sapiens, Keratinocyte) amounted to 100%.

As to `COc1cc(/C=C/C(=O)CC(=O)/C=C/c2ccc(O)c(OC)c2)ccc1O` [Curcumin, curcumin], in assay [1] (10 μM), the “ROS % change (Significance)” value was −16% and the “ROS (fluorescence units)” value is reported as 14065 ± 1231 fluorescence units. The “HMOX1 (ng/ml on quantity of cells)” value in the assay with haem oxygenase 1 (HMOX1) (5 μM) is given as 0.060 ± 0.002 ng/ml on quantity of cells. In addition, the “HMOX1 (ng/ml on quantity of cells)” value in the assay on haem oxygenase 1 (HMOX1) (10 μM) is 0.105 ± 0.006 ng/ml on quantity of cells.

Consider `C[C@@H]1C[C@H]2[C@@H]3CCC4=CC(=O)C=C[C@]4(C)[C@@]3(F)[C@@H](O)C[C@]2(C)[C@@]1(O)C(=O)CO` [Dexamethasone, dexamethasone], for which, in the assay on MMP1, the “% protection (IR-induced MMP1)” value came to 102% and the “MMP1” value is 9.3 ng/mL.

As to `O=C1O[C@H]([C@@H](O)CO)C(O)=C1O` [vitamin C], the results for the “ROS % change (Significance)” value in assay [1] (500 μM) and in assay [2] (500 μM) were −16% and −51%, respectively. Also, the results for the “ROS (fluorescence units)” value in assay [1] (500 μM) and in assay [2] (500 μM) were 14089 ± 1719 fluorescence units and 21719.018 ± 3174.253 fluorescence units, respectively. Further, the “ROS (fluorescence intensity/MTT)” value in assay [3] (UV 2400 J/m^2) is given as 26005 ± 3723 fluorescence intensity/MTT. For the same molecule, the ROS % change in assay [3] (UV 2400 J/m^2, vs control with UVs) was −40%.
